This passage reports IC50 results from patent publication US20230174530A1, “N-(PHENYLAMINOCARBONYL) TETRAHYDRO-ISOQUINOLINES AND RELATED COMPOUNDS AS MODULATORS OF GPR65” (PATHIOS THERAPEUTICS LIMITED, priority 2020, published 2023).

Molecules are shown by their SMILES.

The term IC50 denotes the point on the concentration scale where inhibition reaches its midpoint.

In this experiment the target is T1, human recombinant GPR65 (Homo sapiens, UniProt Q8IYL9).
T1 construct: host or cells: 1321N1 human astrocytoma cells (1321N1-hrGPR65)
T1 sequence (Q8IYL9 whole entry): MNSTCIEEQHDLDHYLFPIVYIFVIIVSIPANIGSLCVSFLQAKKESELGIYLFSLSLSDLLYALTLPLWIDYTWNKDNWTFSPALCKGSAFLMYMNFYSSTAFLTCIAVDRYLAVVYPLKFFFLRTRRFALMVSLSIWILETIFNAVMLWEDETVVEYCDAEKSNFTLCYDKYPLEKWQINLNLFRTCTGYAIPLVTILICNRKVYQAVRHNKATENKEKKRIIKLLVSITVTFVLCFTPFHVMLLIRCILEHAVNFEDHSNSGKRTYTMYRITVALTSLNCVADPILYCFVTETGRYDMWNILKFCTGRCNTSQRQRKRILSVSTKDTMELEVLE
Nature of the experiment: Human GPR65 cAMP HTRF antagonist assay. It counts as cell-based. To be noted: 1321N1-hrGPR65 cells stimulated at assay pH 7.2; suppression of cAMP rise; read-out: hGPR65 IC50. The method, then: Human GPR65 Cyclic Adenosine Monophosphate (cAMP) Homogeneous Time Resolved Fluorescence (HTRF) Antagonist Assay Procedure
IC50 data was obtained by the following procedure:
1321N1 human astrocytoma cells stably expressing human recombinant GPR65 (1321N1-hrGPR65 cells, EuroscreenFast) were cultured according to the vendor's instructions.
Compounds were tested for their ability to antagonise GPR65, through measuring the concentration of cytoplasmic cAMP following treatment of the cells at a pH of 7.2 to activate GPR65 signalling and addition of the compound to be tested. The extent to which the expected rise in cAMP concentration upon GPR65 activation was suppressed by the added compound is indicative of its potency. The assay was carried out according to EuroscreenFast assay methodology as follows.
On the day of the assay, test compounds were added to 384-well, low volume, white microtiter plates by acoustic dispensing. KRH buffer (5 mM KCl, 1.25 mM MgSO4, 124 mM NaCl, 25 mM HEPES, 13.3 mM Glucose, 1.25 mM KH2PO4 and 1.45 mM CaCl2) was adjusted to pH 6.5, pH 7.6 and pH 8.4 by adding NaOH. 1321N1-hGPR65 cells were rapidly thawed and diluted in KRH, pH 7.6 prior to centrifugation at 300×g for 5 min and resuspension in assay buffer (KRH, pH 7.6, supplemented with 1 mM 3-isobutyl-1-methylxanthine (IBMX) and 200 μM ethylenediaminetetraacetic acid (EDTA)). Cells were added to assay plates at a density of 2,000 cells per well in a volume of 5 μl. Assay plates were briefly centrifuged at 100×g and then incubated at room temperature for 30 min. Cells were stimulated by the addition of 5 μL KRH, pH 6.5, to achieve an assay pH of 7.2, while control wells received 5 μl KRH, pH 8.4 to achieve an assay pH of 7.9. Assay plates were briefly centrifuged at 100×g and then incubated at room temperature for 30 min.
Accumulation of cAMP was detected by cAMP HTRF kit (Cisbio). d2-labeled cAMP and cryptate-labeled anti-cAMP antibody in Lysis and Detection Buffer (Cisbio) were added to assay plates, and the plates were incubated at room temperature for 1 h. HTRF measurements were performed using a Pherastar FSX instrument. Acceptor and donor emission signals were measured at 665 nm and 620 nm, respectively, and HTRF ratios were calculated as signal665 nm/signal620 nm×10^4. Data were normalised to high and low control values and fitted with 4-parameter logistic regression to determine hGPR65 IC50 values for the test compounds, which are shown in Table 1.
Take `O=C(Nc1ccc(Cl)c(Cl)c1)N1CCc2ccc(F)cc2C1` [Compound 31, N-(3,4-Dichlorophenyl)-7-fluoro-3,4-dihydroisoquinoline-2(1H)-carboxamide]: the IC50 is < 0.5 µM. As for `O=C(Nc1ccc(Cl)c(C(F)(F)F)c1)N1CCc2cc(Cl)ccc2C1` [Compound 53, 6-Chloro-N-(4-chloro-3-(trifluoromethyl)phenyl)-3,4-dihydroisoquinoline-2(1H)-carboxamide], the IC50 was < 0.5 µM.

For the compound `N#Cc1cccc2c1CCN(C(=O)Nc1ccc(Cl)c(C(F)(F)F)c1)C2` [Compound 137, N-(4-Chloro-3-(trifluoromethyl)phenyl)-5-cyano-3,4-dihydroisoquinoline-2(1H)-carboxamide], the IC50 was 0.5 to 5 µM. To `O=C(Nc1ccc(C(F)(F)F)cc1)N1CCc2ncncc2C1` [Compound 4, N-(4-(Trifluoromethyl)phenyl)-7,8-dihydropyrido[4,3-d]pyrimidine-6(5H)-carboxamide] belongs > 5 µM. The value for `O=C(Nc1ccc(Cl)c(Cl)c1)N1CCc2cncnc2C1` [Compound 8, N-(3,4-Dichlorophenyl)-5,8-dihydropyrido[3,4-d]pyrimidine-7(6H)-carboxamide] was > 5 µM. To `Cc1cccc2c1CN(C(=O)Nc1ccc(Cl)c(Cl)c1)CC2` [Compound 27, N-(3,4-Dichlorophenyl)-8-methyl-3,4-dihydroisoquinoline-2(1H)-carboxamide] belongs 0.5 to 5 µM. Consider `CS(=O)(=O)c1ccc2c(c1)CCN(C(=O)Nc1ccc(Cl)c(Cl)c1)C2` [Compound 125, N-(3,4-Dichlorophenyl)-6-(methylsulfonyl)-3,4-dihydroisoquinoline-2(1H)-carboxamide], for which the IC50 was > 5 µM.

Take `O=C(Nc1ccc(Cl)c(Cl)c1)N1CCc2cc(=O)[nH]cc2C1` [Compound 76, N-(3,4-Dichlorophenyl)-6-oxo-3,4,6,7-tetrahydro-2,7-naphthyridine-2(1H)-carboxamide]: the half-maximal inhibitory concentration (IC50) is < 0.5 µM. To `O=C(Nc1ccc(C(F)(F)F)c(Cl)c1)N1CCc2cc(F)c(F)cc2C1` [Compound 108, N-(3-Chloro-4-(trifluoromethyl)phenyl)-6,7-difluoro-3,4-dihydroisoquinoline-2(1H)-carboxamide] belongs < 0.5 µM; to `O=C(Nc1ccc(C(F)(F)F)c(Cl)c1)N1CCc2c[nH]c(=O)cc2C1` [Compound 100, N-(3-Chloro-4-(trifluoromethyl)phenyl)-7-oxo-3,4,6,7-tetrahydro-2,6-naphthyridine-2(1H)-carboxamide], > 5 µM; to `O=C(Nc1ccc(Cl)c(Cl)c1)N1CCc2cc(F)c(F)cc2C1` [Compound 106, N-(3,4-Dichlorophenyl)-6,7-difluoro-3,4-dihydroisoquinoline-2(1H)-carboxamide], < 0.5 µM. To `O=C(Nc1ccc(Cl)c(Cl)c1)N1CCc2cc(-c3cccnc3F)ccc2C1` [Compound 126, N-(3,4-Dichlorophenyl)-6-(2-fluoropyridin-3-yl)-3,4-dihydroisoquinoline-2(1H)-carboxamide] belongs 0.5 to 5 µM; to `N#Cc1ccc2c(c1)CN(C(=O)Nc1ccc(C(F)(F)F)c(Cl)c1)CC2` [Compound 51, N-(3-Chloro-4-(trifluoromethyl)phenyl)-7-cyano-3,4-dihydroisoquinoline-2(1H)-carboxamide], 0.5 to 5 µM; to `Cc1cccc2c1CCN(C(=O)Nc1ccc(Cl)c(C(F)(F)F)c1)C2` [Compound 59, N-(4-Chloro-3-(trifluoromethyl)phenyl)-5-methyl-3,4-dihydroisoquinoline-2(1H)-carboxamide], 0.5 to 5 µM. Consider `Cc1cccc2c1CCN(C(=O)Nc1ccc(C(F)(F)F)c(Cl)c1)C2` [Compound 60, N-(3-Chloro-4-(trifluoromethyl)phenyl)-5-methyl-3,4-dihydroisoquinoline-2(1H)-carboxamide], for which the 50% inhibitory concentration (IC50) is 0.5 to 5 µM.

As for `O=C(Nc1ccc(Cl)c(C(F)(F)F)c1)N1CCc2[nH]c(=O)ccc2C1` [Compound 77, N-(4-Chloro-3-(trifluoromethyl)phenyl)-2-oxo-1,5,7,8-tetrahydro-1,6-naphthyridine-6(2H)-carboxamide], the IC50 is > 5 µM. For the compound `O=C(Nc1ccc(Cl)c(C(F)(F)F)c1)N1CCc2cncnc2C1` [Compound 7, N-(4-Chloro-3-(trifluoromethyl)phenyl)-5,8-dihydropyrido[3,4-d]pyrimidine-7(6H)-carboxamide], the IC50 is 0.5 to 5 µM. Regarding `O=C(Nc1ccc(Cl)c(Cl)c1)N1CCc2nccnc2C1` [Compound 23, N-(3,4-Dichlorophenyl)-7,8-dihydropyrido[3,4-b]pyrazine-6(5H)-carboxamide], the IC50 was > 5 µM.

With `O=C(Nc1ccc(Cl)c(C(F)(F)F)c1)N1CCc2cc(=O)[nH]cc2C1` [Compound 89, N-(4-chloro-3-(trifluoromethyl)phenyl)-6-oxo-3,4,6,7-tetrahydro-2,7-naphthyridine-2(1H)-carboxamide], the 50% inhibitory concentration (IC50) lay in the range of 0.5 to 5 µM. The value for `Nc1cc2c(cn1)CCN(C(=O)Nc1ccc(Cl)c(Cl)c1)C2` [Compound 82, 7-Amino-N-(3,4-dichlorophenyl)-3,4-dihydro-2,6-naphthyridine-2(1H)-carboxamide] was < 0.5 µM; that for `O=C(Nc1ccc(Cl)c(Cl)c1)N1CCc2cnccc2C1` [Compound 12, N-(3,4-Dichlorophenyl)-3,4-dihydro-2,6-naphthyridine-2(1H)-carboxamide] was 0.5 to 5 µM. The value for `O=C(Nc1cccc(Cl)c1)N1CCc2ncncc2C1` [Compound 3, N-(3-Chlorophenyl)-7,8-dihydropyrido[4,3-d]pyrimidine-6(5H)-carboxamide] was > 5 µM; that for `N#Cc1ccc2c(c1)CCN(C(=O)Nc1ccc(Cl)c(C(F)(F)F)c1)C2` [Compound 38, N-(4-Chloro-3-(trifluoromethyl)phenyl)-6-cyano-3,4-dihydroisoquinoline-2(1H)-carboxamide] was 0.5 to 5 µM; that for `Cc1ccc2c(c1)CCN(C(=O)Nc1ccc(Cl)c(Cl)c1)C2` [Compound 135, N-(3,4-Dichlorophenyl)-6-methyl-3,4-dihydroisoquinoline-2(1H)-carboxamide] was 0.5 to 5 µM.

Take `N#Cc1cccc2c1CN(C(=O)Nc1ccc(C(F)(F)F)c(Cl)c1)CC2` [Compound 132, N-(3-Chloro-4-(trifluoromethyl)phenyl)-8-cyano-3,4-dihydroisoquinoline-2(1H)-carboxamide]: the IC50 was in the range of 0.5 to 5 µM. The value for `O=C(Nc1ccc(Cl)c(C(F)(F)F)c1)N1CCc2ccc(F)cc2C1` [Compound 32, N-(4-Chloro-3-(trifluoromethyl)phenyl)-7-fluoro-3,4-dihydroisoquinoline-2(1H)-carboxamide] was 0.5 to 5 µM; that for `O=C(Nc1cc(Cl)c(Cl)cc1C(F)(F)F)N1CCc2cc(=O)[nH]cc2C1` [Compound 130, N-(4,5-Dichloro-2-(trifluoromethyl)phenyl)-6-oxo-3,4,6,7-tetrahydro-2,7-naphthyridine-2(1H)-carboxamide] was > 5 µM; that for `O=C(Nc1ccc(Cl)c(Cl)c1)N1CCc2cc3nncn3cc2C1` [Compound 109, N-(3,4-Dichlorophenyl)-8,9-dihydro-[1,2,4]triazolo[4,3-b][2,7]naphthyridine-7(6H)-carboxamide] was < 0.5 µM. On to `COC(=O)c1ccc2c(c1)CN(C(=O)Nc1ccc(Cl)c(Cl)c1)CC2` [Compound 131, Methyl 2-((3,4-dichlorophenyl)carbamoyl)-1,2,3,4-tetrahydroisoquinoline-7-carboxylate], for which the IC50 was 0.5 to 5 µM. To `O=C(Nc1ccc(Cl)c(Cl)c1)N1CCc2nonc2C1` [Compound 101, N-(3,4-Dichlorophenyl)-6,7-dihydro-[1,2,5]oxadiazolo[3,4-c]pyridine-5(4H)-carboxamide] belongs 0.5 to 5 µM. In the case of `Cc1cccc2c1CN(C(=O)Nc1ccc(Cl)c(C(F)(F)F)c1)CC2` [Compound 28, N-(4-Chloro-3-(trifluoromethyl)phenyl)-8-methyl-3,4-dihydroisoquinoline-2(1H)-carboxamide], the concentration for half-maximal inhibition (IC50) is > 5 µM. With `O=C(Nc1ccc(Cl)c(Cl)c1)N1CCc2cc(O)ccc2C1` [Compound 95, N-(3,4-Dichlorophenyl)-6-hydroxy-3,4-dihydroisoquinoline-2(1H)-carboxamide], the IC50 is > 5 µM.
